From patent publication US12391697B2, “Condensed bi-heterocycles as inhibiting agents for Bruton's tyrosine kinase” (BIOGEN MA INC., priority 2019, dated 2025)
Where a name gives a salt, the structure may show the parent alone.

Target: BTK (Homo sapiens (Human), UniProt Q06187)
Assay: In Vitro BTK Kinase Assay: Btk-PolyGAT-LS Assay
Assay type: biochemical
Conditions: active BTK enzyme 0.25 nM, ATP 10 μM, polyGAT 100 nM, 30 minutes
Method: In Vitro BTK Kinase Assay: Btk-PolyGAT-LS Assay
The purpose of the BTK in vitro assay is to determine compound potency against BTK through the measurement of IC50. […] The BTK kinase reaction was done in a black 96 well plate (costar 3694). For a typical assay, a […] aliquot of a ATP/peptide master mix (final concentration; ATP 10 μM, polyGAT 100 nM) in kinase buffer (10 mM Tris-HCl pH 7.5, 10 mM MgCl2, 200 μM […], 5 mM DTT, 0.01% Triton X-100, and 0.2 mg/ml casein) is added to each well. Next, […] of a 4-fold, 40× compound titration in 100% DMSO solvent is added, followed by adding 15 uL of BTK enzyme mix in 1× kinase buffer (with a final concentration of 0.25 nM). The assay is incubated for 30 minutes before being stopped with […] of a 50 mM EDTA solution. Aliquots (5 uL) of the kinase reaction are transferred to a low volume white 384 well plate (Corning 3674), and […] of a 2× detection buffer (Invitrogen PV3574, with 4 nM Tb-PY20 antibody, Invitrogen PV3552) is added. The plate is covered and incubated for 45 minutes at room temperature. Time resolved fluorescence (TRF) on Molecular Devices M5 (332 nm excitation; 488 nm emission; 518 nm fluorescein emission) is measured.

Chain of BTK (Q06187 whole entry): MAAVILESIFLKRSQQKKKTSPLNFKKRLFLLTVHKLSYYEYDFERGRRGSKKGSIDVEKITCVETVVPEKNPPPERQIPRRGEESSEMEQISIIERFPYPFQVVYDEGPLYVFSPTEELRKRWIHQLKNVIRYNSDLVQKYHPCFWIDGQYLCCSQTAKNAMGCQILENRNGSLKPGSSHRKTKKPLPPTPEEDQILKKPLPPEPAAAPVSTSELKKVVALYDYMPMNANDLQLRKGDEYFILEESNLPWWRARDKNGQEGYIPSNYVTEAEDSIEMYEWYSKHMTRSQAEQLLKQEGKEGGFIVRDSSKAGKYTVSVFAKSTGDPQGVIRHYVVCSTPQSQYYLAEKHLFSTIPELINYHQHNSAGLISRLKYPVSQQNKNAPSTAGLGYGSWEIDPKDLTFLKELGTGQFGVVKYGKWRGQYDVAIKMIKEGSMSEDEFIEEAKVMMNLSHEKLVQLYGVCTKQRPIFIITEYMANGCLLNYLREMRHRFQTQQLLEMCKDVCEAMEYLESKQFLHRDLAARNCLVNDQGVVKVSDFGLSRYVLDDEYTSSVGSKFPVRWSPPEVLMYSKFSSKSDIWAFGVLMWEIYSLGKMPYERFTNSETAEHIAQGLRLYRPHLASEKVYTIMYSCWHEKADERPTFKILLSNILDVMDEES

SMILES | IC50 [nM]
CC(C)(C)n1cc(C(=O)NCc2ccc(-c3ncnn4cc(N5CCOCC5)cc34)cc2C(F)(F)F)nn1 [Example 187] | ≤ 1
Cn1cc(-c2cc3c(-c4ccc(CNC(=O)c5nc(C(C)(C)C)no5)c(C(F)F)c4)ncnn3c2)cn1 [Example 190] | ≤ 1
Cc1cc(-c2ncnn3cccc23)ccc1CNC(=O)c1nnc(C(C)(C)C)o1 [Example 185] | > 10
COC1CCN(c2cc3c(-c4ccc(CNC(=O)c5nc(C(C)(C)C)no5)c(C)c4)ncnn3c2)CC1 [Example 97] | ≤ 1
Cc1cc(-c2ncnn3ccc(C)c23)ccc1CNC(=O)c1noc(C(C)(C)C)n1 [Example 49] | 1 to 10
Cc1cc(-c2ncnn3cc(N4CCN(C)C(C)C4)cc23)ccc1CNC(=O)c1noc(C(C)(C)C)n1 (centres unmarked) [Example 96] | ≤ 1
CC(C)(C)c1nc(C(=O)NCc2ccc(-c3ncnn4cc(N5CCOCC5)cc34)cc2C(F)F)no1 [Example 220] | ≤ 1
COc1c(CNC(=O)c2ccn(C(C)(C)C)n2)ccc(-c2ncnn3cc(N4CCOCC4)cc23)c1F [Example 202] | 1 to 10
Cc1cc(-c2ncnn3ccnc23)ccc1CNC(=O)c1noc(C(C)(C)C)n1 [Example 52] | 1 to 10
Cc1cc(-c2ncnn3cccc23)ccc1CNC(=O)c1cn(C(C)(C)C)nn1 [Example 184] | > 10
CC(C)(C)c1nc(C(=O)NCc2cc(F)c(-c3ncnn4cccc34)cc2Cl)no1 [Example 132] | 1 to 10
Cn1cc(-c2cc3c(-c4ccc(CNC(=O)c5nnc(C(C)(C)C)o5)c(C(F)F)c4F)ncnn3c2)cn1 [Example 196] | ≤ 1
Cc1cc(-c2ncnn3cccc23)ccc1CNC(=O)c1cnn(C(C)(C)C)c1 [Example 183] | 1 to 10
Cc1cc(-c2ncnn3cc(N4CC[C@H](F)C4)cc23)ccc1CNC(=O)c1noc(C(C)(C)C)n1 (single isomer, unassigned) [Example 141] | ≤ 1
CC(C)(C)n1cc(C(=O)NCc2ccc(-c3ncnn4cc(N5CCOCC5)cc34)c(F)c2Cl)nn1 [Example 157] | ≤ 1
Cc1cc(-c2ncnn3cc(N4CC(CO)(CO)C4)cc23)ccc1CNC(=O)c1noc(C(C)(C)C)n1 [Example 73, N-(4-(6-(3,3-bis(hydroxymethyl)azetidin-1-yl)pyrrolo[2,1-f][1,2,4]triazin-4-yl)-2-methylbenzyl)-5-(tert-butyl)-1,2,4-oxadiazole-3-carboxamide] | ≤ 1
COc1c(CNC(=O)c2cn(C(C)(C)C)nn2)ccc(-c2ncnn3cc(-c4cnn(C)c4)cc23)c1F [Example 200] | 1 to 10
CC(C)(C)n1cc(C(=O)NCc2ccc(-c3ncnn4cc(N5CCOCC5)cc34)cc2Cl)nn1 [Example 162] | 1 to 10
COc1cc(-c2cc3c(-c4ccc(CNC(=O)c5noc(C(C)(C)C)n5)c(C)c4)ncnn3c2)ccn1 [Example 228] | ≤ 1

SMILES | IC50 [nM]
Cn1cc(-c2cc3c(-c4ccc(CNC(=O)c5nnc(C(C)(C)C)o5)c(C(F)F)c4)ncnn3c2)cn1 [Example 191] | ≤ 1
CCn1cc(-c2cc3c(-c4ccc(CNC(=O)c5noc(C(C)(C)C)n5)c(C)c4)ncnn3c2)cn1 [Example 236] | ≤ 1
Cc1cc(-c2ncnn3cc(-c4cnn(C)c4)cc23)ccc1CNC(=O)c1noc(C(C)(C)C)n1 [Example 80, 5-(tert-butyl)-N-(2-methyl-4-(6-(1-methyl-1H-pyrazol-4-yl)pyrrolo[2,1-f][1,2,4]triazin-4-yl)benzyl)-1,2,4-oxadiazole-3-carboxamide] | ≤ 1
Cc1cc(-c2ncnn3cc(C4=CCSCC4)cc23)ccc1CNC(=O)c1noc(C(C)(C)C)n1 [Example 101] | ≤ 1
Cc1cc(-c2ncnn3cc(-c4cnn(C)c4)cc23)ccc1CNC(=O)c1ccn(C(C)(C)C)n1 [Example 168] | ≤ 1
C=CC(=O)n1cc(-c2cc3c(-c4ccc(CNC(=O)c5noc(C(C)(C)C)n5)c(C)c4)ncnn3c2)cn1 [Example 59, N-(4-(6-(1-acryloyl-1H-pyrazol-4-yl)pyrrolo[2,1-f][1,2,4]triazin-4-yl)-2-methylbenzyl)-5-(tert-butyl)-1,2,4-oxadiazole-3-carboxamide] | ≤ 1
Cc1cc(-c2ncnn3cc(C(=O)N4CCOCC4)cc23)ccc1CNC(=O)c1noc(C(C)(C)C)n1 [Example 215] | > 10
Cc1cc(-c2ncnn3cc(N4CCN(C)C[C@H]4C)cc23)ccc1CNC(=O)c1noc(C(C)(C)C)n1 [Example 92] | 1 to 10
Cc1cc(-c2ncnn3cc(N4CCN(C5COC5)C[C@@H]4C)cc23)ccc1CNC(=O)c1noc(C(C)(C)C)n1 [Example 75, (S)-5-(tert-butyl)-N-(2-methyl-4-(6-(2-methyl-4-(oxetan-3-yl)piperazin-1-yl)pyrrolo[2,1-f][1,2,4]triazin-4-yl)benzyl)-1,2,4-oxadiazole-3-carboxamide] | 1 to 10
Cc1cc(-c2ncnn3cc(N4CCN(C)[C@H](C)C4)cc23)ccc1CNC(=O)c1noc(C(C)(C)C)n1 (single isomer, unassigned) [Example 117] | ≤ 1
Cc1cc(-c2ncnn3cc(C4=CCOCC4)cc23)ccc1CNC(=O)c1cnc(C(C)(C)C)o1 (single isomer, unassigned) [Example 125] | ≤ 1
Cc1cc(-c2ncnn3cc(-c4cnsc4)cc23)ccc1CNC(=O)c1nc(C(C)(C)C)no1 [Example 173] | ≤ 1
Cc1cc(-c2cc3c(-c4ccc(CNC(=O)c5noc(C(C)(C)C)n5)c(C)c4)ncnn3c2)ccn1 [Example 227] | ≤ 1
Cc1cc(-c2ncnn3cccc23)ccc1CNC(=O)c1coc(C(C)(F)F)n1 [Example 20, 2-(1,1-difluoroethyl)-N-(2-methyl-4-(pyrrolo[2,1-f][1,2,4]triazin-4-yl)benzyl)oxazole-4-carboxamide trifluoroacetate] | > 10
Cc1cc(-c2ncnn3cc(-c4cnn(C)c4C)cc23)ccc1CNC(=O)c1cnc(C(C)(C)C)o1 [Example 131] | 1 to 10
CC(C)(C)c1nnc(C(=O)NCc2ccc(-c3ncnn4cc(N5CCOCC5)cc34)c(F)c2Cl)o1 [Example 156] | ≤ 1
Cc1cc(-c2ncnn3cc(C4CCOC4)cc23)ccc1CNC(=O)c1noc(C(C)(C)C)n1 (centres unmarked) [Example 95] | 1 to 10
Cc1cc(-c2ccnc3ccnn23)ccc1CNC(=O)c1noc(C(C)(C)C)n1 [Example 50] | 1 to 10
CC(C)(C)c1nc(C(=O)NCc2ccc(-c3ncnn4cc(N5CCOCC5)cc34)cc2CC(F)F)no1 [Example 232] | ≤ 1

SMILES | IC50 [nM]
Cc1cc(-c2ncnn3cc(N4CCOCC4)cc23)ccc1CNC(=O)c1nnn(C(C)(C)C)n1 [Example 114] | ≤ 1
Cc1cc(-c2ncnn3cc(N4CCn5ccnc5C4)cc23)ccc1CNC(=O)c1nc(C(C)(C)C)no1 [Example 121] | ≤ 1
CC(C)(C)c1nc(C(=O)NCc2ccc(-c3ncnn4cc(N5CCOCC5)cc34)c(F)c2CC(F)F)no1 [Example 234] | 1 to 10
Cc1c(CNC(=O)c2noc(C(C)(C)C)n2)ccc(-c2ncnn3cccc23)c1F [Example 218] | ≤ 1
Cc1cc2nccc(-c3ccc(CNC(=O)c4noc(C(C)(C)C)n4)c(C)c3)n2n1 [Example 46] | > 10
CC(C)(C)c1nc(C(=O)NCc2ccc(-c3ncnn4cc(-c5cnn(CC(F)F)c5)cc34)cc2C(F)F)co1 [Example 210] | ≤ 1
CC(C)(C)c1nc(C(=O)NCc2ccc(-c3ncnn4cc(N5CCOCC5)cc34)c(F)c2Cl)no1 [Example 154] | ≤ 1
Cc1cc(-c2ncnn3cc(N4C[C@@H](C)O[C@H](C)C4)cc23)ccc1CNC(=O)c1noc(C(C)(C)C)n1 (single isomer, unassigned) [Example 43] | ≤ 1
Cc1cc(-c2ncnn3cc(C4CCN(C)C4)cc23)ccc1CNC(=O)c1noc(C(C)(C)C)n1 (centres unmarked) [Example 149] | 1 to 10
Cc1c(CNC(=O)c2nc(C(C)(C)C)no2)ccc(-c2ncnn3cc(N4CCN(C)[C@H](C)C4)cc23)c1F (single isomer, unassigned) [Example 25] | ≤ 1
Cc1cc(-c2ncnn3cc(C4=CCOCC4)cc23)ccc1CNC(=O)c1coc(C(C)(C)C)n1 [Example 124] | ≤ 1
CC(C)(C)c1nnc(C(=O)NCc2ccc(-c3ncnn4cc(N5CCOCC5)cc34)cc2C(F)F)o1 [Example 193] | 1 to 10
CC(C)(C)n1nnc(C(=O)NCc2cc(F)c(-c3ncnn4cccc34)cc2Cl)n1 [Example 136] | > 10
Cc1cc(-c2ncnn3cc(-c4cnn(C)c4)cc23)ccc1CNC(=O)c1nnc(C(C)(C)C(F)F)o1 [Example 3, 5-(1,1-difluoro-2-methylpropan-2-yl)-N-(2-methyl-4-(6-(1-methyl-1H-pyrazol-4-yl)pyrrolo[2,1-f][1,2,4]triazin-4-yl)benzyl)-1,3,4-oxadiazole-2-carboxamide] | ≤ 1
CC(C)(C)c1nc(C(=O)NCc2ccc(-c3ncnn4cc(N5CCOCC5)cc34)c(F)c2C(F)F)no1 [Example 221] | ≤ 1
Cc1c(CNC(=O)c2nc(C(C)(C)C)no2)ccc(-c2ccnc3cc(-c4cnn(C)c4)nn23)c1F [Example 83] | ≤ 1
CC(C)(C)c1nc(C(=O)NCc2ccc(-c3ncnn4cccc34)cc2C(F)F)no1 [Example 181] | 1 to 10
COc1cc(-c2ncnn3cc(-c4cnn(C)c4)cc23)ccc1CNC(=O)c1nnc(C(C)(C)C)o1 [Example 197] | 1 to 10
